Where “and” joins values, the source holds several entries; their conditions need not be identical. Equal values may be shown once. Inconclusive results and toxic doses are left out.
System: P388 leukemia ip, CD2F1 mice, survival T/C
Assay: NCI In Vivo Anticancer Drug Screen. Data for tumor model P388 Leukemia (intraperitoneal) in CD2F1 (CDF1) mice
Settings: endpoint: median survival time, higher = longer survival
Procedure, shortened: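 Mice carrying the transplanted tumor received test compound or vehicle. Survival was recorded in each group, and the value is the treated-group measurement divided by that of the vehicle-treated control group.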

[1] = dose: 60.0 mg/kg/injection, schedule: Q01DX005 (ip), vehicle: Klucel (hydroxypropylcellulose) (HPC)
[2] = dose: 120.0 mg/kg/injection, schedule: Q01DX005 (ip), vehicle: Klucel (hydroxypropylcellulose) (HPC)
[3] = dose: 240.0 mg/kg/injection, schedule: Q01DX005 (ip), vehicle: Klucel (hydroxypropylcellulose) (HPC)
[4] = dose: 50.0 mg/kg/injection, schedule: Q01DX009 (ip), vehicle: saline with Tween-80
[5] = dose: 50.0 mg/kg/injection, schedule: Q01DX009 (ip), vehicle: saline
[6] = dose: 100.0 mg/kg/injection, schedule: Q01DX009 (ip), vehicle: Klucel (hydroxypropylcellulose) (HPC)
[7] = dose: 60.0 mg/kg/injection, schedule: Q01DX005 (ip), vehicle: saline with Tween-80
[8] = dose: 120.0 mg/kg/injection, schedule: Q01DX005 (ip), vehicle: saline with Tween-80
[9] = dose: 240.0 mg/kg/injection, schedule: Q01DX005 (ip), vehicle: saline with Tween-80
[10] = dose: 7.5 mg/kg/injection, schedule: Q01DX005 (ip), vehicle: saline with Tween-80
[11] = dose: 15.0 mg/kg/injection, schedule: Q01DX005 (ip), vehicle: saline with Tween-80
[12] = dose: 30.0 mg/kg/injection, schedule: Q01DX005 (ip), vehicle: saline with Tween-80
[13] = dose: 100.0 mg/kg/injection, schedule: Q01DX009 (ip), vehicle: saline with Tween-80
[14] = dose: 200.0 mg/kg/injection, schedule: Q01DX009 (ip), vehicle: saline with Tween-80

COC(=O)c1[nH]c(=O)c(C#N)c(C(=O)OC)c1C(=O)c1ccc2ccccc2c1
T/C [1]: 90 % of control | T/C [2]: 88 % of control | T/C [3]: 97 % of control

NNC(=O)C(NC=O)C(N)=O (stereo unspecified)
T/C (dose: 12.5 mg/kg/injection, schedule: Q01DX009 (ip), vehicle: saline with Tween-80): 107 % of control | T/C (dose: 25.0 mg/kg/injection, schedule: Q01DX009 (ip), vehicle: saline with Tween-80): 100 % of control | T/C [4]: 98 % of control | T/C [5]: 88 % of control | T/C (dose: 200.0 mg/kg/injection, schedule: Q01DX009 (ip), vehicle: saline): 92 % of control

O=C1CC(c2ccccc2)Oc2cc(O)cc(O)c21 (stereo unspecified)
T/C (dose: 12.5 mg/kg/injection, schedule: Q01DX009 (ip), vehicle: Klucel (hydroxypropylcellulose) (HPC)): 98 % of control | T/C (dose: 25.0 mg/kg/injection, schedule: Q01DX009 (ip), vehicle: Klucel (hydroxypropylcellulose) (HPC)): 98 % of control | T/C (dose: 50.0 mg/kg/injection, schedule: Q01DX009 (ip), vehicle: other): 110 % of control | T/C [6]: 98 % of control | T/C (dose: 200.0 mg/kg/injection, schedule: Q01DX009 (ip), vehicle: other): 102 % of control | T/C (dose: 400.0 mg/kg/injection, schedule: Q01DX009 (ip), vehicle: other): 102 % of control

CCC(c1ccc(OCc2ccccc2)cc1)c1cc2c(cc1OC)OCO2 (stereo unspecified)
T/C (dose: 25.0 mg/kg/injection, schedule: Q01DX005 (ip), vehicle: distilled water + Tween-80): 98 % of control | T/C (dose: 50.0 mg/kg/injection, schedule: Q01DX005 (ip), vehicle: distilled water + Tween-80): 92 % of control | T/C (dose: 100.0 mg/kg/injection, schedule: Q01DX005 (ip), vehicle: distilled water + Tween-80): 86 % of control | T/C (dose: 200.0 mg/kg/injection, schedule: Q01DX005 (ip), vehicle: distilled water + Tween-80): 88 % of control

C1CC(N2CC2)CCC1N1CC1 (stereo unspecified)
T/C (dose: 1.56 mg/kg/injection, schedule: Q01DX009 (ip), vehicle: saline): 182 % of control | T/C (dose: 3.12 mg/kg/injection, schedule: Q01DX009 (ip), vehicle: saline): 237 % of control

COC(=O)c1nnn(-c2cc(Cl)ccc2Cl)c1C(=O)c1ccc(OC)cc1
T/C [7]: 95 % of control | T/C [8]: 100 % of control | T/C [9]: 89 % of control

Cc1cccc(Nc2c3ccccc3nc3ccccc23)c1
T/C (dose: 25.0 mg/kg/injection, schedule: Q01DX001 (ip), vehicle: saline with Tween-80): 95 % of control | T/C (dose: 50.0 mg/kg/injection, schedule: Q01DX001 (ip), vehicle: saline with Tween-80): 100 % of control | T/C (dose: 100.0 mg/kg/injection, schedule: Q01DX001 (ip), vehicle: saline with Tween-80): 95 % of control

COc1cc(-c2coc3c4c(ccc3c2=O)OC(C)(C)C=C4)c(OC)c2c1OCO2
T/C (dose: 10.0 mg/kg/injection, schedule: Q01DX009 (ip), vehicle: other): 111 % of control | T/C (dose: 20.0 mg/kg/injection, schedule: Q01DX009 (ip), vehicle: other): 102 % of control | T/C (dose: 40.0 mg/kg/injection, schedule: Q01DX009 (ip), vehicle: other): 123 % of control

CC1(COc2ccccc2OCC2(C)CO2)CO1 (stereo unspecified)
T/C (dose: 1.88 mg/kg/injection, schedule: Q01DX005 (ip), vehicle: saline with Tween-80): 102 % of control | T/C (dose: 3.75 mg/kg/injection, schedule: Q01DX005 (ip), vehicle: saline with Tween-80): 100 % of control | T/C [10]: 98 % of control | T/C [11]: 100 % of control | T/C [12]: 100 % of control | T/C [7]: 102 % of control | T/C [8]: 107 % of control

O=c1oc2ccccc2c(O)c1C(c1ccc2c(c1)OCO2)N1CCOCC1 (stereo unspecified)
T/C (dose: 50.0 mg/kg/injection, schedule: Q01DX005 (ip), vehicle: saline): 113 % of control | T/C (dose: 100.0 mg/kg/injection, schedule: Q01DX005 (ip), vehicle: saline): 110 % of control | T/C (dose: 200.0 mg/kg/injection, schedule: Q01DX005 (ip), vehicle: saline): 103 % of control

CCC1(c2ccc(C)cc2)C(=O)NCNC1=O
T/C [1]: 102 % of control | T/C [2]: 102 % of control | T/C [3]: 100 % of control

S=C(SCc1nc(-c2ccc(Cl)cc2)no1)N1CCSCC1
T/C [7]: 97 % of control | T/C [8]: 92 % of control | T/C [9]: 105 % of control

[CH3][Sn]([CH3])([N]=C=S)[N]=C=S
T/C (dose: 6.25 mg/kg/injection, schedule: Q01DX009 (ip), vehicle: saline): 86 % of control and 93 % of control | T/C (dose: 12.5 mg/kg/injection, schedule: Q01DX009 (ip), vehicle: saline): 100 % of control and 102 % of control and 106 % of control | T/C (dose: 25.0 mg/kg/injection, schedule: Q01DX009 (ip), vehicle: saline): 99 % of control and 102 % of control | T/C [5]: 99 % of control and 103 % of control | T/C (dose: 50.0 mg/kg/injection, schedule: Q01DX009 (ip), vehicle: suspension in saline): 114 % of control

O=P(OCCN(CCOP(=O)(Oc1ccccc1)Oc1ccccc1)c1ccc2ccccc2c1)(Oc1ccccc1)Oc1ccccc1
T/C [4]: 94 % of control | T/C [13]: 86 % of control | T/C [14]: 96 % of control

CC1=NN(C(=O)c2ccncc2)C(=O)C1N=Nc1ccccc1C (stereo unspecified)
T/C [4]: 95 % of control | T/C [13]: 94 % of control | T/C [14]: 94 % of control

COc1ccc(C2=C(C#N)C(=O)OCCN2C)cc1
T/C [7]: 94 % of control | T/C [8]: 100 % of control | T/C [9]: 101 % of control

CC1=CC(C)C/C=C/C2C3OC3(C)C(C)C3C(Cc4c[nH]c5ccccc45)NC(=O)C23C(=O)C=CC(=O)C1O (stereo unspecified)
T/C (dose: 0.2 mg/kg/injection, schedule: Q01DX005 (ip), vehicle: Klucel (hydroxypropylcellulose) (HPC)): 102 % of control | T/C (dose: 0.4 mg/kg/injection, schedule: Q01DX005 (ip), vehicle: Klucel (hydroxypropylcellulose) (HPC)): 97 % of control | T/C (dose: 0.8 mg/kg/injection, schedule: Q01DX005 (ip), vehicle: Klucel (hydroxypropylcellulose) (HPC)): 106 % of control | T/C (dose: 1.6 mg/kg/injection, schedule: Q01DX005 (ip), vehicle: Klucel (hydroxypropylcellulose) (HPC)): 107 % of control | T/C (dose: 2.0 mg/kg/injection, schedule: Q01DX005 (ip), vehicle: Klucel (hydroxypropylcellulose) (HPC)): 109 % of control | T/C (dose: 16.0 mg/kg/injection, schedule: Q01DX005 (ip), vehicle: Klucel (hydroxypropylcellulose) (HPC)): 117 % of control

O=C(O)C1(NO)CCCC1
T/C (dose: 100.0 mg/kg/injection, schedule: Q04DX003 (ip), vehicle: saline): 100 % of control | T/C (dose: 200.0 mg/kg/injection, schedule: Q04DX003 (ip), vehicle: saline): 118 % of control | T/C (dose: 400.0 mg/kg/injection, schedule: Q04DX003 (ip), vehicle: saline): 95 % of control

CC(=O)Nc1cccc([N+](=O)[O-])c1
T/C (dose: 50.0 mg/kg/injection, schedule: Q04DX003 (ip), vehicle: saline with Tween-80): 110 % of control | T/C (dose: 100.0 mg/kg/injection, schedule: Q04DX003 (ip), vehicle: saline with Tween-80): 110 % of control | T/C (dose: 200.0 mg/kg/injection, schedule: Q04DX003 (ip), vehicle: saline with Tween-80): 110 % of control

O=C(O)c1cc(Br)cc(Br)c1O.O=C(O)c1cc(Br)cc(Br)c1O.[Cu]
T/C [11]: 92 % of control | T/C [12]: 94 % of control | T/C [7]: 101 % of control and 92 % of control

COc1ccc(-c2c(S(C)(=O)=O)nsc2S(C)(=O)=O)cc1
T/C (dose: 50.0 mg/kg/injection, schedule: Q01DX009 (ip), vehicle: Klucel (hydroxypropylcellulose) (HPC)): 105 % of control | T/C [6]: 106 % of control | T/C (dose: 200.0 mg/kg/injection, schedule: Q01DX009 (ip), vehicle: Klucel (hydroxypropylcellulose) (HPC)): 97 % of control

CCC[CH2][Sn]([CH2]CCC)([S]/C(C#N)=N/N=C/c1ccc(N(C)C)cc1)[S]/C(C#N)=N/N=C/c1ccc(N(C)C)cc1
T/C [10]: 117 % of control

CN(C)c1cc(-c2ccccc2)oc(=O)c1Cl
T/C [4]: 99 % of control | T/C [13]: 100 % of control

CN(C)C1CC/C=C/CC/C=C/CC[C@H]1O (mixture of isomers)
T/C (dose: 12.5 mg/kg/injection, schedule: Q01DX005 (ip), vehicle: saline with Tween-80): 100 % of control | T/C (dose: 25.0 mg/kg/injection, schedule: Q01DX005 (ip), vehicle: saline with Tween-80): 98 % of control | T/C (dose: 50.0 mg/kg/injection, schedule: Q01DX005 (ip), vehicle: saline with Tween-80): 99 % of control and 100 % of control

O=C1OC(C(O)CO)C(=N\Nc2ccc(Cl)cc2)/C1=N/Nc1ccccc1 (stereo unspecified)
T/C (dose: 100.0 mg/kg/injection, schedule: Q01DX001 (ip), vehicle: Klucel (hydroxypropylcellulose) (HPC)): 103 % of control | T/C (dose: 200.0 mg/kg/injection, schedule: Q01DX001 (ip), vehicle: Klucel (hydroxypropylcellulose) (HPC)): 103 % of control | T/C (dose: 400.0 mg/kg/injection, schedule: Q01DX001 (ip), vehicle: Klucel (hydroxypropylcellulose) (HPC)): 110 % of control
